{"source": "patent US20240180898A1", "about": "“USE OF AMINOTHIAZOLE DERIVATIVE IN TREATMENT OF IMMUNE INFLAMMATION” (INNAMUNE PHARMACEUTICAL CO. LTD., priority 2021, published 2024)", "key": {"[1]": {"tested_on": "macrophages derived from mouse bone marrow", "assay": "LPS-induced secretion of inflammatory factors from macrophages, ELISA of supernatant", "type": "cell-based", "details": "30 umol/L 2 hours before LPS 500 ng/ml for 24 hours; FIG. 2", "method": "macrophage grouping (in vitro):\nCultivate macrophages derived from mouse bone marrow in vitro.\nThe experiment was divided into 8 groups, namely: • Control group (untreated mouse bone marrow-derived macrophages), • LPS group (500 ng/ml LPS stimulated macrophages for 24 hours), • LPS+TJ-2 group (2 hours before LPS stimulation, administer 30 umol/L TJ-2 drug stimulation), • LPS+TJ-5 group (2 hours before LPS stimulation, administer 30 umol/L TJ-5 drug stimulation), • LPS+TJ-8 group (2 hours before LPS stimulation, administer 30 umol/L TJ-8 drug stimulation), • LPS+TJ-9 group (2 hours before LPS stimulation, administer 30 umol/L TJ-9 drug stimulation), • LPS+TJ-11 group (2 hours before LPS stimulation, administer 30 umol/L TJ-11 drug stimulation), • and LPS+TJ-12 group (2 hours before LPS stimulation, administer 30 umol/L TJ-12 drug stimulation).\nAfter 24 hours of LPS stimulation, the cell culture supernatant was removed and ELISA was performed to detect the concentration of various inflammatory factors in the supernatant."}, "mouse eczema model": {"tested_on": "mouse eczema model", "assay": "mouse atopic dermatitis/eczema model", "type": "in vivo", "method": "Preparation and grouping of mouse […] model:\nModel preparation: Male C57 mice aged 6-8 weeks were treated with 2% M7309 (carboplatin) ointment on their ears once a day for 10 consecutive days.\nThe experiment was divided into three groups, namely: • Eczema control group (without any treatment, eczema model group), TJ-M2010-5 systemic medication group (intraperitoneal injection), and TJ-M2010-5 local medication group (ointment group). The specific handling method is as follows: • TJ-M2010-5 systemic medication group: A mouse eczema model was taken and TJ-M2010-5 was injected intraperitoneally at a dose of 50 mg/kg, once a day, for 2 consecutive weeks. • TJ-M2010-5 local medication group: Take a mouse eczema model, apply 1% TJ-M2010-5 ointment on the skin, once a day, for 2 consecutive weeks."}, "[2]": {"tested_on": "inflammatory colon cancer model", "assay": "AOM/DSS induced inflammatory colon cancer model", "type": "in vivo, mouse", "method": "Preparation and grouping of mouse inflammatory colon cancer model:\nModel preparation: 6-8-week-old male C57 mice were intraperitoneally injected with AOM (10 mg/Kg)/DSS (2.5%) to induce an inflammatory colon cancer model.\nThe experiment was divided into two groups, namely: • Inflammatory colon cancer model group (without any treatment, i.e. AOM/DSS group), TJ-M2010-5 medication group (intraperitoneal injection). The specific handling method is as follows: • TJ-M2010-5 medication group: Two days before inducing inflammatory colon cancer in C57 mice by intraperitoneal injection of AOM (10 mg/kg)/DSS (2.5%), TJ-M2010-5 was injected intraperitoneally at a dose of 50 mg/kg once a day for 10 consecutive weeks."}, "[3]": {"assay": "preclinical safety assessment, intravenous injection", "type": "in vivo", "method": "Direct intravenous injection of 30 mg/kg or more will cause elevated liver enzyme toxicity, and it has no toxic effect at 10 mg/kg."}, "[4]": {"assay": "drug concentration in blood after skin ointment on maximum body area", "type": "in vivo", "details": "skin ointments applied to the maximum body area"}, "[5]": {"tested_on": "mouse spleen derived B cells", "assay": "R848 induced lupus like B cell immune disorder model in vitro", "type": "cell-based", "details": "TJ-5 10 or 20 μmol/L 3 hours before R848 500 ng/ml 48 hours", "method": "Preparation and grouping of an in vitro lupus like B cell immune disorder model:\nModel preparation: Mouse spleen derived B cells were purified using a magnetic bead sorting kit and cultured in vitro. Stimulating factor CD40L was added to maintain the long-term survival of B cells in vitro. Lupus like B cell immune disorders were induced by stimulating B cells with R848 (500 ng/ml) for 48 hours.\nThe experiment is divided into four groups, namely: • Control group (without any treatment, normal cultured B cells); • R848 group (model group): Stimulate B cells with R848 (500 ng/ml) for 48 hours; • TJ-5 (10 μM) Group: First use TJ-5 (10 μmol/L) Pre stimulate B cells for 3 hours, then stimulate B cells with R848 (500 ng/ml) for 48 hours; • TJ-5 (20 μM) Group: First use TJ-5 (20 μmol/L) Pre stimulate B cells […] for 3 hours, then stimulate B cells with R848 (500 ng/ml) for 48 hours.\nCollect cells and cell culture supernatant for detection after R848 stimulation is completed."}, "CSDS depression model": {"tested_on": "CSDS depression model", "assay": "Frustrative Depression (CSDS) model", "type": "in vivo, mouse", "details": "C57BL/6J mice", "method": "Male C57BL/6J mice (6-7 weeks old, 18-20 g weight) and male CD-1 mice ([…] old) were used to create a model of Frustrative Depression (CSDS). C57BL/6J mice were attacked by different CD-1 […] for 10 minutes every day for 10 consecutive days. At night, the two types of mice were kept in the same cage separated by a perforated transparent glass to maintain the pressure of the attack."}, "transplanted skin": {"tested_on": "transplanted skin", "assay": "allogeneic skin transplantation, Balb/c to B6", "type": "in vivo, mouse", "details": "used for 2 weeks then stopped", "text": "The paired mice for transplantation: The donor mouse is a balb/c mouse; The recipient mouse is B6 mouse. Transplant the donor's skin or heart separately to the recipient. After skin transplantation, INNA1605 (TJ-M2010-5) was continuously used for 2 weeks and then stopped. About 38% of the transplanted skin was permanently non-rejection. After administering TJ-M2010-5 for two weeks after allogeneic heart transplantation, 60% of the heart grafts were permanently not rejected. In these surviving recipient mice (non-rejection), the hearts of the same donor mice were transplanted for a second time without any treatment. The result was 100% non-rejection of the heart, confirming the development of immune tolerance against the same antigen (see FIGS. 34 and 35)."}, "IRI model of mouse liver": {"tested_on": "IRI model of mouse liver", "assay": "hepatic IRI model, western blotting of liver protein", "details": "in vivo", "text": "The IRI model of mouse liver was established. Animals were divided into three groups: Sham group, IRI group and IRI+TJ-5 group. Protein extracted from mouse liver was detected."}, "dry eye disease model": {"tested_on": "dry eye disease model", "assay": "experimental dry eye (EDE) model", "type": "in vivo, mouse", "details": "day 9, vs EDE group", "text": "Dry eye disease was induced by placing mice in a experimental dry eye (EDE) condition and administering scopolamine to maximize ocular surface dryness. Animals were divided into three groups: non-EDE group, EDE group and EDE+TJ-5 group. Mice were euthanized on day 9 for cellular and molecular analysis."}, "[6]": {"details": "intraperitoneal 50 mg/kg once a day, 10 weeks"}}}
{"smiles": "O=C(CCN1CCN(Cc2ccccc2)CC1)Nc1nc(-c2ccccc2)cs1", "note": "[INNA1605, 3-(4-benzylpiperazine-1-yl)-N-(4-phenylthiazole-2-yl) propionamide]", "values": [{"measurement": "inhibitory effect on inflammatory factors compared among the compounds", "setting": "[1]", "result": "have the same inhibitory effect on inflammatory factors"}, {"measurement": "secretion of various inflammatory factors in macrophages (IL-1β, Il-6, TNF-α, IL-18, IL-17)", "setting": "[1]", "result": "can inhibit the secretion of various inflammatory factors in macrophages"}, {"measurement": "therapeutic effect, local medication", "setting": "mouse eczema model; 1% ointment once a day, 2 weeks", "result": "excellent therapeutic effects"}, {"measurement": "abnormally thickened stratum corneum", "setting": "mouse eczema model; after treatment", "result": "can basically restore normal tissue structure"}, {"measurement": "inflammation", "setting": "mouse eczema model; after treatment", "result": "significantly reduced"}, {"measurement": "various inflammatory factors in the skin", "setting": "mouse eczema model; mouse, in vivo", "result": "decreased"}, {"measurement": "proliferation of epithelial cells in the colon mucosa", "setting": "[2]; BrdU, Ki-67", "result": "significantly inhibited"}, {"measurement": "neutrophil infiltration", "setting": "[2]; MPO staining of colon mucosa", "result": "significantly reduced"}, {"measurement": "inflammatory tissue damage of the colon mucosa", "setting": "[2]; [6]", "result": "significantly reduced"}, {"measurement": "therapeutic effect", "setting": "[2]; [6]", "result": "excellent"}, {"measurement": "no carcinogenesis observed", "setting": "[2]; model group 100% cancerous transformation", "result": 100, "unit": "%"}, {"measurement": "colitis", "setting": "[2]; mouse, in vivo", "result": "disappeared"}, {"measurement": "mucosal thickening", "setting": "[2]; mouse, in vivo", "result": "improved"}, {"measurement": "dose causing elevated liver enzyme toxicity", "setting": "[3]; direct intravenous injection", "result": "≥ 30", "unit": "mg/kg"}, {"measurement": "dose with no toxic effect", "setting": "[3]; direct intravenous injection", "result": 10, "unit": "mg/kg"}, {"measurement": "toxicity to the body", "setting": "[3]; preclinical trial results", "result": "low toxicity to the body"}, {"measurement": "drug concentration in the blood", "setting": "[4]", "result": "2 to 3", "unit": "ng/mL"}, {"measurement": "abnormal activation and differentiation of B cells", "setting": "[5]", "result": "can inhibit abnormal activation and differentiation of B cells"}, {"measurement": "secretion of B cell autoantibodies and inflammatory factors", "setting": "[5]", "result": "inhibit the secretion of B cell autoantibodies and inflammatory factors"}, {"measurement": "induced depressive behavior and neuroinflammation in the brain", "setting": "CSDS depression model", "result": "significantly improves induced depressive behavior and neuroinflammation in the brain"}, {"measurement": "transplanted skin permanently non-rejection", "setting": "transplanted skin", "result": "About 38%"}, {"measurement": "GSDMD cleavage in liver", "setting": "IRI model of mouse liver", "result": "effectively inhibited GSDMD cleavage"}, {"measurement": "NLRP3, cleavage of caspase-1 (upregulated) and pro-caspase-1 (downregulated) following IRI", "setting": "IRI model of mouse liver", "result": "this trend was reversed"}, {"measurement": "cleavage of caspase-11", "setting": "IRI model of mouse liver", "result": "effectively inhibited cleavage of caspase-11"}, {"measurement": "corneal fluorescein staining score", "setting": "dry eye disease model", "result": "significantly lower corneal fluorescein staining score"}, {"measurement": "expression of IL-1β, TNF-α, MCP-1 and IL-6 in corneal tissues", "setting": "dry eye disease model", "result": "reduced expression"}]}
